Laboratory results: PubChem BioAssay (NCI)
Several values for one entry are separate records, joined by “and”; a condition that tells them apart may be missing. Equal entries are not always repeated.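 Five compound concentrations were applied to cells in 96-well plates for 48 hours; endpoints were derived by simple linear interpolation of the resulting dose-response curve. GI50: concentration for 50% inhibition of growth. The concentration for full growth arrest is given as TGI.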

What was measured:
Test in all cases: DTP human tumour cell line panel, 48 h
[1] = system: K-562 leukemia
[2] = system: NCI-H23 lung
[3] = system: KM12 colon
[4] = system: CCRF-CEM leukemia
[5] = system: NCI-H522 lung
[6] = system: RPMI-8226 leukemia
[7] = system: HOP-92 NSCLC
[8] = system: OVCAR-8 ovarian
[9] = system: SW-620 colon
[10] = system: SK-OV-3 ovarian

| Compound | GI50 [1] [nM] | TGI [1] | GI50 [2] | TGI [2] | GI50 [3] | TGI [3] | GI50 [4] [nM] | TGI [4] | GI50 [5] [nM] | GI50 [6] | TGI [6] | GI50 [7] | TGI [7] [µM] | GI50 [8] | TGI [8] | GI50 [9] [nM] | TGI [9] | GI50 [10] [nM] | TGI [10] | TGI [5] [µM] |
| --- | --- | --- | --- | --- | --- | --- | --- | --- | --- | --- | --- | --- | --- | --- | --- | --- | --- | --- | --- | --- |
| COc1ccc(Cn2cnc3cc(C(=O)Nc4cccc5ccccc45)ccc32)c(OC)c1 | 34.4 | > 100 µM | 0.0898 µM | > 100 µM | 39.1 nM | 8.06 µM | 40.7 | > 100 µM | 39 | 0.0368 µM | 12.5 µM | 153 nM | > 100 | 60.3 nM | > 100 µM | 33.4 | > 100 µM | 106 | > 100 µM | – |
| c1ccc2c(-c3nc4ccccc4[nH]3)cccc2c1 | 541 | 18 µM | 4.2 µM | > 100 µM | 2260 nM | > 100 µM | 2540 | 7.81 µM | 2190 | 3.19 µM | 34.5 µM | 4270 nM | 38.2 | 4090 nM | 33.3 µM | 1910 | 53.8 µM | 4040 | 27.3 µM | 5.54 |
| O=C(CC/C(CC(=O)c1ccc(Cl)cc1)=N/O)Nc1ccc(Cl)c(Cl)c1 | – | > 100 µM | – | > 100 µM | – | > 100 µM | – | > 100 µM | – | – | > 100 µM | – | > 100 | – | > 100 µM | – | > 100 µM | – | > 100 µM | > 100 |
| COc1cc(OC)c2cc(C(=O)O)c(=O)oc2c1 | > 100000 | > 100 µM | > 100 µM | > 100 µM | > 100000 nM | > 100 µM | > 100000 | > 100 µM | > 71500 | 6.1 µM | > 36.2 µM | > 100000 nM | > 100 | > 100000 nM | > 100 µM | > 100000 | > 100 µM | > 100000 | > 100 µM | > 100 |
| O=C(Nc1ccc(Cl)cc1)c1ccc([N+](=O)[O-])o1 | – | – | 1.81 µM | 4.54 µM | 2350 nM | 6.38 µM | 4110 | 49.4 µM | 642 | 3.72 µM | 38.1 µM | 10400 nM | 27.2 | 2990 nM | 12.8 µM | 1120 | 2.68 µM | 2640 | 7.27 µM | 1.76 |
| O=C1/C(=C/c2ccc(Cl)cc2)CN(Cc2cn(CCNc3ccnc4cc(Cl)ccc34)nn2)C/C1=C\c1ccc(Cl)cc1 | 302 | 1.08 µM | 0.761 µM | 2.31 µM | 220 nM | 0.496 µM | 309 | > 100 µM | 520 | 0.272 µM | 1.05 µM | 496 nM | 1.83 | 367 nM | 1.43 µM | 275 | 0.83 µM | 1030 | 2.38 µM | 1.19 |
| Nc1nc(Cl)c(N=Nc2ccc(Cl)cc2)c(NCC2(CO)CC(OCc3ccccc3)C2)n1 (stereo not given) | 2760 | 10.3 µM and > 100 µM | 3.76 µM and 25 µM and 3.09 µM | 24.9 µM and > 100 µM and 13.9 µM | 20000 nM and 41300 nM and 7740 nM | > 100 µM and 28 µM | – | 51.5 µM and > 100 µM | 2090 | 7.56 µM and > 44.4 µM and 14.5 µM | > 100 µM | 1830 nM and 6130 nM and 2330 nM | – | 3690 nM and 16100 nM and 4390 nM | 16.3 µM and > 100 µM and 23.9 µM | – | > 100 µM and 20 µM | – | 69.9 µM and > 100 µM and 30 µM | 4.26 |
| C/C1=C\CC[C@@]2(C)O[C@@H]2C[C@@H]2[C@H](C/C(C)=C/CC1)OC(=O)C21CCN=N1 (stereo not given in full) | 71200 | 42.7 µM and > 100 µM | > 100 µM | > 100 µM | > 100000 nM | > 100 µM | 44900 | 75 µM and > 100 µM | – | > 100 µM | 75 µM and > 100 µM | – | > 75 | > 100000 nM | > 100 µM | > 100000 | > 100 µM | – | > 75 µM | 75 |
| S=P1(c2ccccc2)Nc2ccc(Cl)cc2N1 (stereo not given) | – | > 100 µM | – | > 100 µM | – | > 100 µM | – | > 100 µM | – | – | > 100 µM | – | 71.9 | – | – | – | > 100 µM | – | > 100 µM | > 100 |
| N#Cc1c(-c2ccc(Cl)cc2)c(-c2ccc(Cl)cc2)nn(CCOC(=O)CCC(=O)O)c1=O | – | 41 µM | – | 19.6 µM | – | 71.2 µM | – | > 43.6 µM | – | – | > 60 µM | – | 15.2 | – | > 78.4 µM | – | > 100 µM | – | 30.8 µM | 4.88 |
| N#CCc1ccc(/C(C#N)=C2/OC(=N)C(c3ccc(CC#N)cc3)C2=O)cc1 (stereo not given) | – | > 100 µM | – | > 100 µM | – | – | – | > 100 µM | – | – | > 100 µM | – | > 100 | – | > 100 µM | – | > 100 µM | – | > 100 µM | > 100 |
| COc1cc(/C=C/C(=O)C(C(=O)/C=C/c2ccc(OC(=O)CCNc3nnc(C)s3)c(OC)c2)C(=O)CCNc2nnc(C)s2)ccc1OC(=O)CCNc1nnc(C)s1 | 2230 | 8.01 µM | 3.19 µM | 18.4 µM | 1630 nM | 3.18 µM | 1090 | 2.51 µM | 2490 | 1.85 µM | 4.86 µM | 2480 nM | 8.4 | 2930 nM | 16.7 µM | 1640 | 3.33 µM | 4650 | 23.6 µM | 7.79 |
| CCCCCCCCCCCCCC(=O)OC(/C=C/C(C)C)C(O)C(O)C(OC)C(=O)NC1CCCCNC1=O (stereo not given) | 2680 | 10.2 µM | 8.82 µM | 5 µM | 3920 nM | 4.59 µM | 5700 | 11.9 µM | 5270 | – | 15.9 µM | – | 3.76 | 2770 nM | 5.08 µM | 4400 | 4.46 µM | – | 10.4 µM | 4.23 |
| O=c1oc2ccc(F)cc2c(=O)n1-c1ccc(Cl)cc1F | 509 | > 100 µM | 0.604 µM | 5.16 µM | 2110 nM | 5.84 µM | 2620 | 13 µM | 363 | 0.356 µM | 1.9 µM | 205 nM | 0.613 | 2050 nM | 26.2 µM | 1240 | 21.2 µM | 584 | 2.58 µM | 4.5 |
